Test results from patent US20100273814A1, “((PHENYL)IMIDAZOLYL)METHYLHETEROARYL COMPOUNDS” (priority 2007, published 2010).
Read-outs that look alike come from different tables or passages of the source.

Columns and labels:
Format in all cases: cell-based
alpha2C receptor = molecular target: T1, alpha2C receptor (Homo sapiens, UniProt P18825); test: Receptor Selection and Amplification Technology (RSAT) assay, alpha2C; settings: for Alpha 2C intrinsic activity (efficacy): ratio of maximal effect to that of standard full agonist brimonidine (UK14304), value in brackets
T1 construct: expressed in transfected cells; host or cells: NIH-3T3 cells
T1 sequence (P18825 1-462): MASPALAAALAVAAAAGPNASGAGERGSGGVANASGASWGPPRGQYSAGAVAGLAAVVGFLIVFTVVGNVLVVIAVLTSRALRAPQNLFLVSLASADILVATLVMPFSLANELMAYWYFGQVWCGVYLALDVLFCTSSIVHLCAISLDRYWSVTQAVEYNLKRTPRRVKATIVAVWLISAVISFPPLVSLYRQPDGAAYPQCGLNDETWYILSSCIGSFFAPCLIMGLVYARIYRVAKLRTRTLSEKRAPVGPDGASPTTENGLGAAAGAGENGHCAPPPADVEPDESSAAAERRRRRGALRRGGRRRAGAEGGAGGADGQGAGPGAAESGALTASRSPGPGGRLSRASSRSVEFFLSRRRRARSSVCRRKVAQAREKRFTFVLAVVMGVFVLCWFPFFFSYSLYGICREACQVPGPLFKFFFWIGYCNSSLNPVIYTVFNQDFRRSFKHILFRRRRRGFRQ
Protocol: (§1) Receptor Selection and Amplification Technology (RSAT) Assay
(§2) The RSAT assay measures a receptor-mediated loss of contact inhibition that results in selective proliferation of receptor-containing cells in a mixed population of confluent cells. The increase in cell number is assessed with an appropriate transfected marker gene such as β-galactosidase, the activity of which can be easily measured in a 96-well format. Receptors that activate the G protein, Gq, elicit this response. Alpha2 receptors, which normally couple to Gi, activate the RSAT response when coexpressed with a hybrid Gq protein that has a Gi receptor recognition domain, called Gq/i5.
(§3) NIH-3T3 cells are plated at a density of 2×10^6 cells in 15 cm dishes and maintained in Dulbecco's modified Eagle's medium supplemented with 10% calf serum. One day later, cells are cotransfected by calcium phosphate precipitation with mammalian expression plasmids encoding p-SV-β-galactosidase (5-10 μg), receptor (1-2 μg) and G protein (1-2 μg). 40 μg salmon sperm DNA may also be included in the transfection mixture. Fresh media is added on the following day and 1-2 days later, cells are harvested and frozen in 50 assay aliquots. Cells are thawed and […] added to 100 aliquots of various concentrations of drugs in triplicate in 96-well dishes. Incubations continue 72-96 hr at 37° C. After washing with phosphate-buffered saline, β-galactosidase enzyme activity is determined by adding 200 μl of the chromogenic substrate (consisting of 3.5 mM o-nitrophenyl-β-D-galactopyranoside and 0.5% nonidet P-40 in phosphate buffered saline), incubating overnight at 30° C. and measuring optical density at 420 nm. The absorbance is a measure of enzyme activity, which depends on cell number and reflects a receptor-mediated cell proliferation. The efficacy or intrinsic activity is calculated as a ratio of the maximal effect of the drug to the maximal effect of a standard full agonist for each receptor subtype. Brimonidine, also called UK14304, the chemical structure of which is shown below, is used as the standard agonist for the alpha2A, alpha2B and alpha2C receptors. The EC50 is the concentration at which the drug effect is half of its maximal effect.
(§4) EC50 values are nanomolar. ND stands for “not determinable” at concentrations less than 10 micromolar. IA stands for “intrinsic activity.”

alpha2B receptor = molecular target: T2, alpha2B receptor (Homo sapiens, UniProt P18089); test: Receptor Selection and Amplification Technology (RSAT) assay, alpha2B; settings: for Alpha 2B intrinsic activity (efficacy): ratio of maximal effect to that of standard full agonist brimonidine (UK14304), value in brackets
T2 construct: expressed in transfected cells; host or cells: NIH-3T3 cells
T2 sequence (P18089 1-450): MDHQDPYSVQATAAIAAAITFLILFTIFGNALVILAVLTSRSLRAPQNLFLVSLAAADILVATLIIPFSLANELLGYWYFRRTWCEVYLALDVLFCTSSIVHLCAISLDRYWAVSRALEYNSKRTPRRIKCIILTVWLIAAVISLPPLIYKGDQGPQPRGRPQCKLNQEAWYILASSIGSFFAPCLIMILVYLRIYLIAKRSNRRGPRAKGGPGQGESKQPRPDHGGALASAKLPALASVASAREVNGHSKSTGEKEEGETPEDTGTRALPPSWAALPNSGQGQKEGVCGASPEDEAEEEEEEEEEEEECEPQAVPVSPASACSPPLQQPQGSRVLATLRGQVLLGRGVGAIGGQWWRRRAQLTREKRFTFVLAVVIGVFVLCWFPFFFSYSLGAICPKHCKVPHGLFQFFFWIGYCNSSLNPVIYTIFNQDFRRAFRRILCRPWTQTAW
Protocol: as §1, §2, §3, §4

alpha2A receptor = molecular target: T3, alpha2A receptor (Homo sapiens, UniProt P08913); test: Receptor Selection and Amplification Technology (RSAT) assay, alpha2A; settings: for Alpha 2A intrinsic activity (efficacy): ratio of maximal effect to that of standard full agonist brimonidine (UK14304), value in brackets
T3 construct: expressed in transfected cells; host or cells: NIH-3T3 cells
T3 sequence (P08913 1-465): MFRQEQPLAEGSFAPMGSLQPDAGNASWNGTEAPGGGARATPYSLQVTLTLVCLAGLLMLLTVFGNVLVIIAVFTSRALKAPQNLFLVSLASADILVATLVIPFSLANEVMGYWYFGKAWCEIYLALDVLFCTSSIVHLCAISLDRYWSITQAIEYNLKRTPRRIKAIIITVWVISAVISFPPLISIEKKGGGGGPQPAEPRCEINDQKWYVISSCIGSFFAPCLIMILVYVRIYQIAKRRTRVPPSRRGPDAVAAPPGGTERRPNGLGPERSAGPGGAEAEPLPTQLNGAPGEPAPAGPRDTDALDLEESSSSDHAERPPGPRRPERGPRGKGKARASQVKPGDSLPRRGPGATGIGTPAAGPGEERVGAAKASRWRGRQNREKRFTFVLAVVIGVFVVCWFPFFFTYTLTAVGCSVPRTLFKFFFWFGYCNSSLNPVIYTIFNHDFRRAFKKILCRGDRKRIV
Protocol: as §1, §2, §3, §4

[1] = RSAT, transfected NIH-3T3 cells, value outside brackets, read-out: Alpha 2C EC50 (potency)
[2] = RSAT, transfected NIH-3T3 cells, value outside brackets, read-out: Alpha 2B EC50 (potency)
[3] = RSAT, transfected NIH-3T3 cells, value outside brackets, read-out: Alpha 2A EC50 (potency)

| Compound | EC50 (alpha2C receptor; [1]) | Alpha 2C intrinsic activity (efficacy) (alpha2C receptor; RSAT) | EC50 (alpha2B receptor; [2]) | Alpha 2B intrinsic activity (efficacy) (alpha2B receptor; RSAT) | EC50 (alpha2A receptor; [3]) | Alpha 2A intrinsic activity (efficacy) (alpha2A receptor; RSAT) | EC50 (alpha2B receptor) | EC50 (alpha2C receptor) | EC50 (alpha2A receptor) |
| --- | --- | --- | --- | --- | --- | --- | --- | --- | --- |
| Clc1cccc(C(c2cccnc2)c2c[nH]cn2)c1Cl (centres unmarked) | 112 nM | 0.87 | 1.62 nM | 1.15 | 0.605 µM | 0.37 |  |  |  |
| Cc1c(Cl)cccc1C(c1ccccn1)c1c[nH]cn1 (centres unmarked) | 495 nM | 0.53 | 7.8 nM | 1.39 | > 10 µM | 0.12 |  |  |  |
| Fc1c(Cl)cccc1C(c1c[nH]cn1)c1cccs1 (centres unmarked) |  | 0.28 |  | 0.93 |  | 0.21 | 46 nM |  |  |
| Fc1cccc(C(c2cccnc2)c2c[nH]cn2)c1Cl (centres unmarked) | 88 nM | 0.87 | 4.8 nM | 0.98 | 3.37 µM | 0.32 |  |  |  |
| CC(C)c1ccc(C(c2c[nH]cn2)c2cccc(F)c2Cl)s1 (centres unmarked) |  | 0.23 | 75 nM | 0.40 |  | 0.06 |  |  |  |
| Clc1cccc(C(c2ccccn2)c2c[nH]cn2)c1Cl (centres unmarked) [2-((2,3-dichlorophenyl)(1H-imidazol-5-yl)methyl)pyridine] |  | 0.39 |  | .85 |  | 0.21 | 8.7 nM | 784 nM | > 10 µM |
| Fc1cccc(C(c2ccccn2)c2c[nH]cn2)c1F (centres unmarked) [2-((2,3-difluorophenyl)(1H-imidazol-5-yl)methyl)pyridine] | > 10000 nM | 0.16 | 405 nM | 1.08 | > 10 µM | 0.05 |  |  |  |
| Cc1cccc(C(c2ccccn2)c2c[nH]cn2)c1C (centres unmarked) [2-((2,3-dimethylphenyl)(1H-imidazol-4-yl)methyl)pyridine] | 356 nM | 0.64 | 0.92 nM | 1.22 | 1.93 µM | 0.39 |  |  |  |
| Fc1c(C(c2ccccn2)c2c[nH]cn2)cccc1C(F)(F)F (centres unmarked) [2-((2-fluoro-3-(trifluoromethyl)phenyl)(1H-imidazol-5-yl)methyl)pyridine] | 507 nM | 1.09 | 39 nM | 1.1 | > 10 µM | 0.08 |  |  |  |
| Fc1ccccc1C(c1ccccn1)c1c[nH]cn1 (centres unmarked) [2-((2-fluorophenyl)(1H-imidazol-5-yl)methyl)pyridine] | 2080 nM | 0.43 | 993 nM | 0.56 | > 10 µM | 0.04 |  |  |  |
| Cc1ccccc1C(c1ccccn1)c1c[nH]cn1 (centres unmarked) [2-((2-methylphenyl)(1H-imidazol-5-yl)methyl)pyridine] | 213 nM | 0.57 | 177 nM | 0.92 | > 10 µM | 0.03 |  |  |  |
| Fc1c(Cl)cccc1C(c1ccccn1)c1cnc[nH]1 (centres unmarked) [2-((3-chloro-2-fluorophenyl)(1H-imidazol-5-yl)methyl)pyridine] | 177 nM | 0.49 | 32 nM | 1.21 | > 10 µM | 0.07 |  |  |  |
| Cc1c(F)cccc1C(c1ccccn1)c1c[nH]cn1 (centres unmarked) [2-((3-fluoro-2-methylphenyl)(1H-imidazol-5-yl)methyl)pyridine] | 440 nM | 0.38 | 36 nM | 1.07 | > 10 µM | 0.04 |  |  |  |
| Fc1cccc(C(c2ccccn2)c2c[nH]cn2)c1 (centres unmarked) [2-((3-fluorophenyl)(1H-imidazol-5-yl)methyl)pyridine] | > 10000 nM | 0.25 | 273 nM | 0.64 | > 10 µM | 0.14 |  |  |  |
| c1ccc(C(c2ccccn2)c2c[nH]cn2)cc1 (centres unmarked) [2-((phenyl)(1H-imidazol-5-yl)methyl)pyridine] | > 10000 nM | 0.09 | 469 nM | 0.87 | > 10 µM | 0.04 |  |  |  |
| Fc1cccc(C(c2cccnc2)c2c[nH]cn2)c1F (centres unmarked) [3-((2,3-difluorophenyl)(1H-imidazol-5-yl)methyl)pyridine] | 656 nM | 0.85 | 68 nM | 0.93 | > 10 µM | 0.05 |  |  |  |
| Cc1cccc(C(c2cccnc2)c2c[nH]cn2)c1C (centres unmarked) [3-((2,3-dimethylphenyl)(1H-imidazol-5-yl)methyl)pyridine] | 14 nM | 0.55 | 0.33 nM | 1.25 | > 10 µM | 0.19 |  |  |  |
| Fc1c(C(c2cccnc2)c2c[nH]cn2)cccc1C(F)(F)F (centres unmarked) [3-((2-fluoro-3-(trifluoromethyl)phenyl)(1H-imidazol-5-yl)methyl)pyridine] | 32 nM | 0.42 | 5.2 nM | 1.24 | > 10 µM | 0.23 |  |  |  |
| Fc1ccccc1C(c1cccnc1)c1c[nH]cn1 (centres unmarked) [3-((2-fluorophenyl)(1H-imidazol-5-yl)methyl)pyridine] |  | 0.55 |  | 0.60 |  | 0.7 | 251 nM | 2480 nM | > 10 µM |
| Cc1ccccc1C(c1cccnc1)c1c[nH]cn1 (centres unmarked) [3-((2-methylphenyl)(1H-imidazol-5-yl)methyl)pyridine] | > 10000 nM | 0.29 | 259 nM | 0.61 | > 10 µM | 0.06 |  |  |  |
